Measurements taken from patent US10935552B2, “Aie luminogens for visualization and treatment of cancer” (THE HONG KONG UNIVERSITY OF SCIENCE AND TECHNOLOGY, priority 2015, dated 2021).

Key:
[1] = tested on: ROS; assay: ROS generation under white light with H2DCF-DA indicator; conditions: white light irradiation; dye 10 mM, H2DCF-DA 5 mM, ex 488 nm
Description: Fluorescence change of TPE-IQ-2O, H2DCF-DA (ROS indicator) and the mixture with different irradiation time of white light. […] Dye (TPE-IQ-2O): 10 mM; H2DCF-DA: 5 mM. Excitation wavelength: 488 nm.

[2] = tested on: HepG2 cells; assay: Cell imaging, HepG2 cells; format: cell-based, human; conditions: HepG2, 200 nM, 20 and 10 mins
Description: (§1) The PC-9, HepG2, and HCC827 cells were grown overnight on a 35 mm petri dish with a cover slip. The live cells were incubated with 200 nM of TPE-IQ-2O for 20 and 10 mins. In all the experiments, the cancer cells are fluorescent in solely staining.
(§2) HepG2 cells (human hepatocarcinoma cell line), PC-9 cells (human lung adenocarcinoma cell line), Hela cells (human cervical carcinoma cell line), and LX2 cells (normal cell, human hepatic stellate cell line) were stained with 200 nM DPA-IQ for 10 min. Images were taken under the same equipment settings. Scale bar: 30 μm. Excitation wavelength: 400-440 nm.

[3] = tested on: COS-7 cells; assay: Cell imaging under fluorescent microscope, COS-7 normal cells; format: cell-based, simian; conditions: COS-7 stained alone, 200 nM, 1-20 min
Description: Cell culture: HeLa cells were cultured in the MEM containing 10% FBS and 1% antibiotics (100 units/mL penicillin and 100 µg/mL streptomycin) in a 5% CO2 humidity incubator at 37° C. COS-7, MDA-MB-231, MCF-7, and MDCK-II cells were culture in the DMEM containing 10% FBS and antibiotics (100 units/mL penicillin and 100 µg/mL streptomycin) in a 5% CO2 humidity incubator at 37° C. Cell imaging: two different kind of cells were grown overnight on a 35 mm petri dish with a cover slip. The live cells were incubated with 200 nM of TPE-IQ-2O for 1, 5, 10, and 20 mins. […] Condition: 200 nM (Filter: both close; Channel 5; EX: 400-440 nm; Exposure time: bright field: 1000 ms Fluorescence: 1000 ms. Two different kinds of cells were grown overnight on a 35 mm petri dish with a cover slip. The live cells were incubated with 200 nM of TPE-IQ-2O for 20, 10, and 5 mins. The MCF-7 cells were stained by TPE-IQ-2O; the COS-7 cells were stained by TPE-IQ-2O; the MCF-7 cells and COS-7 cells were co-cultured and stained together by TPE-IQ-2O. Condition: 200 nM (Filter: both close; Channel 5; EX: 400-440 nm; Exposure time: bright field: 1000 ms Fluorescence: 1000 ms. Two different kinds of cells were grown overnight on a 35 mm petri dish with a cover slip. […] Condition: 200 nM (Filter: both close; Channel 5; EX: 400-440 nm; Exposure time: bright field: 1000 ms Fluorescence: 1000 ms.

[4] = tested on: MDCK-II cells; assay: Cell imaging under fluorescent microscope, MDCK-II normal cells; format: cell-based, Canine; conditions: MDCK-II stained alone, 200 nM, 10 mins
Description: Cell culture: HeLa cells were cultured in the MEM containing 10% FBS and 1% antibiotics (100 units/mL penicillin and 100 µg/mL streptomycin) in a 5% CO2 humidity incubator at 37° C. COS-7, MDA-MB-231, MCF-7, and MDCK-II cells were culture in the DMEM containing 10% FBS and antibiotics (100 units/mL penicillin and 100 µg/mL streptomycin) in a 5% CO2 humidity incubator at 37° C.
Cell imaging: two different kind of cells were grown overnight on a 35 mm petri dish with a cover slip. The live cells were incubated with 200 nM of TPE-IQ-2O for 1, 5, 10, and 20 mins. In a typical experiment, 2 μL of a 10 mM stock solution of TPE-IQ-2O in DMSO was diluted to 2 mL with cell culture medium, followed by further dilution to desired concentration. The cells were imaged under a fluorescent microscope (BX41 Microscope) using the same excitation and emission filters: excitation filter=400-440 nm, dichroic mirror=455 nm, and emission filter=465 nm long pass.
Two different kinds of cells were grown overnight on a 35 mm petri dish with a cover slip. The live cells were incubated with 200 nM of TPE-IQ-2O for 10 mins. […] Condition: 200 nM 10 mins (Filter: both close; Channel 5; EX: 400-440 nm; Exposure time: bright field: 1000 ms Fluorescence: 1000 ms.

[5] = tested on: PC-9 cells; assay: Cell imaging, PC-9 cells; format: cell-based, human; conditions: PC-9, 200 nM, 20 and 10 mins
Description: as §1, §2

[6] = tested on: HeLa cells; assay: LDH cytotoxicity assay, HeLa cells; format: cell-based, human
Description: The HeLa and COS-7 cells were seeded in 96-well plate for 24 hrs. Then a different concentration of TPE-IQ-2O was added into each well. After 30 mins TPE-IQ-2O treatment in the dark, the dye was removed. Half of the cells were treated with white light irradiation for 90 mins and the rest of cells were kept in the dark. After another 24 hrs of incubation, 10 μL of 10× lysis buffer bromide was added to untreated cells as Maximum LDH Activity, while 10 μL ultrapure water was added to other wells. After incubation at 37° C. 5% CO2 for 45 mins, 50 μL of each well sample medium was transferred to a new 96-well plate, followed by addition of 50 μL reaction mixture. 50 μL stop solution were added into each well after 30 mins incubation protected from light. Then the absorbance was achieved by plate reader.

Structure (SMILES): CCC[n+]1cc2ccc(C(=C(c3ccc(OC)cc3)c3ccc(OC)cc3)c3ccccc3)cc2c(-c2ccccc2)c1-c1ccccc1 [TPE-IQ-2O, 6-(2,2-bis(4-methoxyphenyl)-1-phenylvinyl)-3,4-diphenyl-2-propylisoquinolin-2-ium]
- ROS generation (H2DCF-DA fluorescence) [1]: continuous ROS generation
- Fluorescence of stained cells [2]: fluorescent
- Fluorescence of stained cells [3]: not stained
- Fluorescence of stained cells [4]: not stained
- Fluorescence of stained cells [5]: fluorescent
- LDH cytotoxicity ([6]; white light irradiation for 90 mins): HeLa cells decreased as the concentration of TPE-IQ-2O increased
- LDH cytotoxicity ([6]; without white light irradiation): no obvious cytotoxicity
